In paper PMC11836371, “Virtual fragment screening for DNA repair inhibitors in vast chemical space” (Nature Communications, 2025):
Several values for one entry are separate records, joined by “and”; a condition that tells them apart may be missing. Equal entries are not always repeated. Where two headings read alike, the source gives them in different places.

Assays:
human OGG1 enzyme [1] = target: T1, human OGG1 enzyme (Homo sapiens, UniProt O15527); assay: OGG1 glycosylase activity assay (enzyme inhibition, APE1-coupled fluorescence); type: biochemical
[2] = system: NF-κB activation in HEK293T pGF NF-κB cells; assay: TNF-α induced NF-κB activation assay; type: cell-based; conditions: Homo sapiens, HEK-293T; NFκB activation assay; ± SD; read-out: pEC50 (converted)
Method: The inhibition of TNF-α induced NF-κB activation was measured in HEK293T cells transfected with the pGreenfire NF-κB plasmid. This is a plasmid that has NF-κB response elements (TRE) coupled to GFP and luciferase expression. When the NF-κB is activated by TNF-α, it binds to the TRE and induces GFP expression, and the fluorescence can be measured in a plate reader. The cells were authenticated with STR profiling, frozen down and these stocks were used in experiments. The HEK293T pGF NF-κB cells were kept in DMEM with 5% FBS and 1% P/S but, when seeded for the assay the medium was changed to DMEM FluoroBrite with 1% dialyzed FBS. All cell culture reagents were purchased from Thermo Fisher Scientific. Compounds were nano-dispensed (Echo acoustic dispenser) in 96-well, black/clear, assay plates (Corning #3904), duplicate plates, in 8-points dose-response curves, 1:2 dilutions, with DMSO compensation (0.3% DMSO). Cells were seeded at 30000 cells/well in medium containing 10 ng/mL of TNF-α (Sigma-Aldrich), except negative control wells which only contained cells in medium. Cells were cultured for 24 hours in a humidified incubator at 37 °C with 5% CO2 after which the GFP fluorescence was measured in a Sense plate reader (Hidex) with ex485/em535. The RFU data from the duplicate plates were combined to calculate % inhibition of NF-κB activation and IC50-values were calculated using XLfit (IDBS). In parallel with the NF-κB assay, a CellTiterGlo (Promega) cell viability assay was run to exclude compounds affecting cell viability. Compounds were nano-dispensed (Echo acoustic dispenser) in assay plates in 11-points dose-response curves, 1:3 dilutions, without DMSO compensation, with duplicates on the same plate. Cells were seeded at 7500 cells/well in 25 µL medium (DMEM FluoroBrite with 1% dialyzed FBS) containing 10 ng/mL TNF-α and cultured for 24 hours, with column 24 containing only culture medium. After equilibration to room temperature, the CellTiterGlo reagents were mixed and 25 µL/well were added to the cell plate. After 2 min mixing of the plate on an orbital shaker, the plate was incubated for 10 min at room temperature followed by luminescence reading in Sense. The cell viability was calculated compared to untreated control wells and the EC50 values were determined in XLfit (IDBS). […]

HCT116 cells = assay: Cancer cell viability assay (resazurin), HCT116; type: cell-based; conditions: two independent experiments; for percentage cell viability: HCT116, 100 μM, 100 µM; for viability at 100 µM: Homo sapiens, HCT-116, HCT116, 100 μM, read-out: percentage cell viability
Method: (§1) Three different cancer cell lines A2780 (ovarian cancer, ECACC 93112519), A549 (lung cancer, ATCC 60150896) and HCT116 (colon cancer, ATCC CCL-247), and one immortalized fibroblast cell line (BJhTERT) as control, were seeded in black/clear 384-well plates (Corning #3764), 50 µL/well, containing 11 concentrations, nano-dispensed, dose-response curves of the test compounds. A2780, HCT116, and HEK293T cell lines were authenticated with STR profiling, frozen down, and these stocks were used in experiments. The A2780 cells were cultured in RPMI 1640, the A549 and BJhTERT cells in DMEM, and the HCT116 cells in McCoys 5 A medium. All media were supplemented with 10% FBS and 1% P/S. All cell culture media, additives, and reagents were purchased from Thermo Fisher Scientific. The cell plates were incubated 72 hours in a humidified incubator at 37 °C with 5% CO2, after which resazurin (Sigma-Aldrich), 10 µL/well, was added to a final concentration of 10 µg/mL. The plates were incubated for 6 hours with resazurin followed by fluorescence readings in a Sense plate reader (Hidex), resorufin protocol (ex 544 nm/em 595 nm). The cell viability was calculated compared to untreated control wells and the EC50 values were determined in XLfit (IDBS).

A549 cells = assay: Cancer cell viability assay (resazurin), A549; type: cell-based; conditions: two independent experiments; for percentage cell viability: A549, 100 μM, 100 µM; for viability at 100 µM: Homo sapiens, A549, A549, 100 μM, read-out: percentage cell viability
Method: as §1

human OGG1 enzyme [3] = target: T1, human OGG1 enzyme; assay: Differential scanning fluorimetry (DSF) thermal shift assay; type: binding; parameters: ∆Tm (K): unit of the concentration uncertain; conditions: for ΔTm: concentration not given
Method: The temperature was increased from 20 °C to 85 °C with 10 readings/degree. Tm values were calculated using an excel template and fitting to the Boltzmann equation in Prism v.6.07 (GraphPad Software).

A2780 cells = assay: Cancer cell viability assay (resazurin), A2780; type: cell-based; conditions: two independent experiments; for percentage cell viability: A2780, 100 μM, 100 µM; for viability at 100 µM: Homo sapiens, A2780, A2780, 100 μM, read-out: percentage cell viability
Method: as §1

BJhTERT cells = assay: Cell viability assay (resazurin), BJhTERT non-transformed control; type: cell-based; conditions: BJhTERT, 100 μM, two independent experiments
Method: (§2) A2780, HCT116, and HEK293T cell lines were authenticated with STR profiling, frozen down, and these stocks were used in experiments. […] All media were supplemented with 10% FBS and 1% P/S. All cell culture media, additives, and reagents were purchased from Thermo Fisher Scientific. The cell plates were incubated 72 hours in a humidified incubator at 37 °C with 5% CO2, after which resazurin (Sigma-Aldrich), 10 µL/well, was added to a final concentration of 10 µg/mL. […] The cell viability was calculated compared to untreated control wells and the EC50 values were determined in XLfit (IDBS).

[4] = as above; type: cell-based; conditions: human, BJhTERT, 100 μM, two independent experiments; read-out: percentage cell viability
Method: as §2

[5] = Table S5, ± SD, read-out: pIC50 (converted)
[6] = 99 (unit uncertain) as printed in sheet footnote
[7] = Table 1, mean ± SD, at least three independent replicates, read-out: pIC50 (converted)

T1 sequence (O15527 whole entry): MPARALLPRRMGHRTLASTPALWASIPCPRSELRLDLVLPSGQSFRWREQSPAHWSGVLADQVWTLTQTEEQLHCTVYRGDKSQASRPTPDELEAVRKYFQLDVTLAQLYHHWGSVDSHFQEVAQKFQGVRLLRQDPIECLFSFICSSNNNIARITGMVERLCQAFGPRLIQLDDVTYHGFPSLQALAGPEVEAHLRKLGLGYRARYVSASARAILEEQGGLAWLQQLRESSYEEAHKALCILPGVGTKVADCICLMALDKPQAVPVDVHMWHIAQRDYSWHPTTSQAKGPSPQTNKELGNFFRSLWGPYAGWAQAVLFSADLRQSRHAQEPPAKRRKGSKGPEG

Row | SMILES | IC50 (human OGG1 enzyme [1]; [5]) [µM] | EC50 [2] [µM] | percentage cell viability (HCT116 cells) | viability at 100 µM (HCT116 cells) [%] | percentage cell viability (A549 cells) [%] | viability at 100 µM (A549 cells) [%] | ∆Tm (K) (human OGG1 enzyme [3]; 99 μM) | percentage cell viability (A2780 cells) [%] | viability at 100 µM (A2780 cells) [%] | percentage cell viability (BJhTERT cells) | viability at 72 h, 100 µM [4] [%] | further results
1 | O=C(Cc1ccc(-n2ncc3c2CCNC3)cc1)Nc1noc2c1CCCC2 [compound 16] | > 100 | > 31.6 |  |  |  |  |  |  |  |  |  | 
2 | Cc1nc(-c2ccc(CC(=O)Nc3noc4c3CCCC4)c(F)c2)c(C)[nH]1 [compound 20] | 0.741 | 20.4 | 15.72% | 13 | 35.78 | 35 | 8.6 ± 0.5 K | 2.93 | 2.84 | 24.23% | 23.9 | 
3 | Cc1nn(-c2ccc(CC(=O)Nc3noc4c3CCCC4)cc2)c2ccc(N)cc12 [compound 14] | 9.77 | 6.61 | 30.89% | 26 | 28.85 | 28.3 |  | 5.95 | 3.81 | 41.42% | 38.5 | 
4 | O=C(Cc1ccc(-n2ncc3ccncc32)cc1)Nc1noc2c1CCCC2 [compound 13] | 47.9 | 14.1 |  |  |  |  |  |  |  |  |  | 
5 | O=C(Cc1ccc(-n2nc(Cl)c3ccccc32)cc1)Nc1noc2c1CCCC2 [compound 12] | 10.5 | 5.5 | 2.49% | 3.25 | 10.09 | 12.3 | 2.3 K | 0.88 | 1.08 | 28.88% | 30.1 | 
6 | Cc1cc(C)n(-c2ccc(CC(=O)Nc3noc4c3CCCC4)cc2)n1 [compound 7] |  | 35.5 |  |  |  |  | 5.5 K and 5.5 ± 1.2 K |  |  |  |  | OGG1 inhibition, dose-response (Figure2C) (human OGG1 enzyme [1]; Concentration (M) 9.67e-7): 16.25 and 10.96; OGG1 inhibition, dose-response (Figure2C) (human OGG1 enzyme [1]; Concentration (M) 1.93e-6): 24.11 and 22.26; OGG1 inhibition, dose-response (Figure2C) (human OGG1 enzyme [1]; Concentration (M) 3.87e-6): 37.42 and 38.76; OGG1 inhibition, dose-response (Figure2C) (human OGG1 enzyme [1]; Concentration (M) 7.73e-6): 52.82 and 50.97; OGG1 inhibition, dose-response (Figure2C) (human OGG1 enzyme [1]; Concentration (M) 1.55e-5): 74.43 and 67.46; OGG1 inhibition, dose-response (Figure2C) (human OGG1 enzyme [1]; Concentration (M) 3.09e-5): 80.92 and 75.35; OGG1 inhibition, dose-response (Figure2C) (human OGG1 enzyme [1]; Concentration (M) 6.19e-5): 85.03 and 86.63; OGG1 inhibition, dose-response (Figure2C) (human OGG1 enzyme [1]; Concentration (M) 0.000124): 92.57 and 92.28; OGG1 inhibition, dose-response (Figure2C) (human OGG1 enzyme [1]; Concentration (M) 0.000248): 92.32 and 95.26; OGG1 inhibition, dose-response (Figure2C) (human OGG1 enzyme [1]; Concentration (M) 0.000495): 96.86 and 92.16; IC50 (human OGG1 enzyme [1]; read-out: IC50): 6.6 µM; ∆Tm (K) (human OGG1 enzyme [3]; [6]): 5.5 ± 1.2 K; ΔTm (human OGG1 enzyme [3]): 5.5 K
7 | Cc1ccc(CNC(=O)c2ccc(F)nc2)cc1 [compound 3] |  |  |  |  |  |  |  |  |  |  |  | IC50 (human OGG1 enzyme [1]; Table S2, virtual fragment screen hits, read-out: pIC50 (converted)): > 100 µM; ∆Tm (K) (human OGG1 enzyme [3]; 495 µM): 0.6 K; ∆Tm (K) (human OGG1 enzyme [3]; 495 (unit uncertain) as printed in sheet footnote): 0.6 K
8 | O=C(Cc1c(F)cccc1F)Nc1noc2c1CCCC2 [compound 6] |  |  |  |  |  |  | 1.1 ± 0.5 K |  |  |  |  | IC50 (human OGG1 enzyme [1]; [7]): 36.3 µM; ∆Tm (K) (human OGG1 enzyme [3]; [6]): 1.1 ± 0.5 K
9 | O=C(Nc1noc2c1CCCC2)[C@H]1Cc2ccccc21 [compound 5] |  |  |  |  |  |  | 4.1 ± 0.7 K |  |  |  |  | IC50 (human OGG1 enzyme [1]; read-out: IC50): 58 µM; ∆Tm (K) (human OGG1 enzyme [3]; [6]): 4.1 ± 0.7 K; ΔTm (human OGG1 enzyme [3]): 4.1 K
10 | Cc1cc(C2CC2)n(-c2ccc(CC(=O)Nc3noc4c3CCCC4)cc2)n1 [compound 9] | 3.72 | 9.12 | 86.44% | 81.6 | 68.3 | 68.1 | 6.6 ± 0.6 K | 25.03 | 21.5 | 80.1% | 73 | IC50 (human OGG1 enzyme [1]; Figure 3B source data, three independent experiments, read-out: IC50 OGG1): 6.28 µM and 6.2 µM and 6.46 µM
11 | Cc1cc(C)n(-c2cc(F)c(CC(=O)Nc3noc4c3CCCC4)c(F)c2)n1 [compound 8] |  | 11.2 | 43.25% | 35.4 | 33.07 | 32.8 | 5.4 ± 0.5 K | 19.16 | 17.4 | 42.84% | 40.1 | IC50 (human OGG1 enzyme [1]; [7]): 6.46 µM; ∆Tm (K) (human OGG1 enzyme [3]; [6]): 5.4 ± 0.5 K
12 | Cc1[nH]c(Br)nc1-c1ccc(CC(=O)Nc2noc3c2CCCC3)cc1 [compound 21] | 2.09 | 11.5 | 47.52% | 38.9 | 31.92 | 23.9 | 5.9 K | 6.18 | 4.62 | 76% | 63.3 | 
13 | O=C(Cc1ccc(-n2ncc3c2CNCC3)cc1)Nc1noc2c1CCCC2 [compound 15] |  | 13.2 |  |  |  |  |  |  |  |  |  | 
14 | Cc1nc(-c2ccc(CC(=O)Nc3noc4c3CCCC4)nc2)c(C)[nH]1 [compound 22] | 1.95 | 28.2 | 64.01% and 103.96% |  | 96.69 | 79.4 | 6.3 K | 65.16 | 50.2 | 76.15% and 96.63% |  | 
15 | Cc1nc(-c2ccc(CC(=O)Nc3noc4c3CCCC4)c(C)c2)c(C)[nH]1 [compound 19] | 0.813 | 10.5 | 6.65% | 5.31 |  |  | 7.4 ± 0.2 K | 2.96 | 2.43 | 24.77% | 15.2 | 
